Measurements published in the NIST ThermoML archive (doi:10.1016/j.tca.2005.03.009).
Numbers after ± are expanded uncertainties.

Assay: excess molar enthalpy (molar enthalpy of mixing); xn = mol fraction of the nth substance listed
Conditions: 298.15 K, 10000 kPa, Liquid, Flow calorimetry

## CCC(C)=O [butanone] + CCOC(C)=O
x2 = 0.047
  excess molar enthalpy: 0.0711 ± 0.0043 kcal/mol
x2 = 0.082
  excess molar enthalpy: 0.119 ± 0.0043 kcal/mol
x2 = 0.118
  excess molar enthalpy: 0.165 ± 0.00382 kcal/mol
x2 = 0.153
  excess molar enthalpy: 0.201 ± 0.00382 kcal/mol
x2 = 0.189
  excess molar enthalpy: 0.24 ± 0.00406 kcal/mol
x2 = 0.225
  excess molar enthalpy: 0.271 ± 0.00382 kcal/mol
x2 = 0.262
  excess molar enthalpy: 0.301 ± 0.00382 kcal/mol
x2 = 0.298
  excess molar enthalpy: 0.323 ± 0.00382 kcal/mol
x2 = 0.335
  excess molar enthalpy: 0.346 ± 0.00406 kcal/mol
x2 = 0.371
  excess molar enthalpy: 0.362 ± 0.00406 kcal/mol
x2 = 0.408
  excess molar enthalpy: 0.378 ± 0.00406 kcal/mol
x2 = 0.446
  excess molar enthalpy: 0.389 ± 0.0043 kcal/mol
x2 = 0.483
  excess molar enthalpy: 0.4 ± 0.0043 kcal/mol
x2 = 0.52
  excess molar enthalpy: 0.405 ± 0.0043 kcal/mol
x2 = 0.558
  excess molar enthalpy: 0.403 ± 0.0043 kcal/mol
x2 = 0.596
  excess molar enthalpy: 0.401 ± 0.0043 kcal/mol
x2 = 0.634
  excess molar enthalpy: 0.387 ± 0.0043 kcal/mol
x2 = 0.673
  excess molar enthalpy: 0.374 ± 0.0043 kcal/mol
x2 = 0.711
  excess molar enthalpy: 0.354 ± 0.00406 kcal/mol
x2 = 0.75
  excess molar enthalpy: 0.33 ± 0.0043 kcal/mol
x2 = 0.789
  excess molar enthalpy: 0.296 ± 0.00406 kcal/mol
x2 = 0.828
  excess molar enthalpy: 0.261 ± 0.0043 kcal/mol
x2 = 0.867
  excess molar enthalpy: 0.216 ± 0.0043 kcal/mol
x2 = 0.907
  excess molar enthalpy: 0.163 ± 0.00454 kcal/mol
x2 = 0.947
  excess molar enthalpy: 0.103 ± 0.00502 kcal/mol
x2 = 0.96
  excess molar enthalpy: 0.0773 ± 0.00574 kcal/mol
x2 = 0.974
  excess molar enthalpy: 0.0518 ± 0.0055 kcal/mol

## CCOC(C)=O [ethyl acetate] + CC(C)O
x1 = 0.039
  excess molar enthalpy: 0.065 ± 0.00478 kcal/mol
x1 = 0.07
  excess molar enthalpy: 0.114 ± 0.00454 kcal/mol
x1 = 0.1
  excess molar enthalpy: 0.155 ± 0.0043 kcal/mol
x1 = 0.132
  excess molar enthalpy: 0.192 ± 0.00406 kcal/mol
x1 = 0.163
  excess molar enthalpy: 0.228 ± 0.00406 kcal/mol
x1 = 0.196
  excess molar enthalpy: 0.259 ± 0.00406 kcal/mol
x1 = 0.229
  excess molar enthalpy: 0.289 ± 0.00406 kcal/mol
x1 = 0.262
  excess molar enthalpy: 0.313 ± 0.00406 kcal/mol
x1 = 0.296
  excess molar enthalpy: 0.336 ± 0.00406 kcal/mol
x1 = 0.331
  excess molar enthalpy: 0.356 ± 0.00406 kcal/mol
x1 = 0.366
  excess molar enthalpy: 0.372 ± 0.00406 kcal/mol
x1 = 0.402
  excess molar enthalpy: 0.387 ± 0.0043 kcal/mol
x1 = 0.439
  excess molar enthalpy: 0.395 ± 0.0043 kcal/mol
x1 = 0.476
  excess molar enthalpy: 0.404 ± 0.0043 kcal/mol
x1 = 0.514
  excess molar enthalpy: 0.409 ± 0.0043 kcal/mol
x1 = 0.553
  excess molar enthalpy: 0.406 ± 0.0043 kcal/mol
x1 = 0.592
  excess molar enthalpy: 0.402 ± 0.0043 kcal/mol
x1 = 0.632
  excess molar enthalpy: 0.39 ± 0.0043 kcal/mol
x1 = 0.673
  excess molar enthalpy: 0.374 ± 0.0043 kcal/mol
x1 = 0.715
  excess molar enthalpy: 0.351 ± 0.0043 kcal/mol
x1 = 0.758
  excess molar enthalpy: 0.321 ± 0.0043 kcal/mol
x1 = 0.801
  excess molar enthalpy: 0.283 ± 0.0043 kcal/mol
x1 = 0.845
  excess molar enthalpy: 0.239 ± 0.0043 kcal/mol
x1 = 0.891
  excess molar enthalpy: 0.182 ± 0.00454 kcal/mol
x1 = 0.937
  excess molar enthalpy: 0.115 ± 0.00478 kcal/mol
x1 = 0.952
  excess molar enthalpy: 0.0903 ± 0.00526 kcal/mol
x1 = 0.969
  excess molar enthalpy: 0.0607 ± 0.00526 kcal/mol

## CCOC(C)=O [ethyl acetate] + CCCO
x1 = 0.039
  excess molar enthalpy: 0.0599 ± 0.00382 kcal/mol
x1 = 0.068
  excess molar enthalpy: 0.0949 ± 0.00382 kcal/mol
x1 = 0.098
  excess molar enthalpy: 0.129 ± 0.00359 kcal/mol
x1 = 0.129
  excess molar enthalpy: 0.161 ± 0.00359 kcal/mol
x1 = 0.16
  excess molar enthalpy: 0.19 ± 0.00359 kcal/mol
x1 = 0.192
  excess molar enthalpy: 0.22 ± 0.00335 kcal/mol
x1 = 0.225
  excess molar enthalpy: 0.243 ± 0.00335 kcal/mol
x1 = 0.258
  excess molar enthalpy: 0.268 ± 0.00359 kcal/mol
x1 = 0.291
  excess molar enthalpy: 0.288 ± 0.00359 kcal/mol
x1 = 0.326
  excess molar enthalpy: 0.306 ± 0.00359 kcal/mol
x1 = 0.361
  excess molar enthalpy: 0.326 ± 0.00382 kcal/mol
x1 = 0.396
  excess molar enthalpy: 0.338 ± 0.00382 kcal/mol
x1 = 0.433
  excess molar enthalpy: 0.349 ± 0.00382 kcal/mol
x1 = 0.47
  excess molar enthalpy: 0.355 ± 0.00382 kcal/mol
x1 = 0.508
  excess molar enthalpy: 0.361 ± 0.00382 kcal/mol
x1 = 0.547
  excess molar enthalpy: 0.362 ± 0.00382 kcal/mol
x1 = 0.586
  excess molar enthalpy: 0.359 ± 0.00382 kcal/mol
x1 = 0.627
  excess molar enthalpy: 0.35 ± 0.00382 kcal/mol
x1 = 0.668
  excess molar enthalpy: 0.339 ± 0.00382 kcal/mol
x1 = 0.71
  excess molar enthalpy: 0.321 ± 0.00382 kcal/mol
x1 = 0.753
  excess molar enthalpy: 0.296 ± 0.00382 kcal/mol
x1 = 0.797
  excess molar enthalpy: 0.265 ± 0.00382 kcal/mol
x1 = 0.842
  excess molar enthalpy: 0.223 ± 0.00382 kcal/mol
x1 = 0.888
  excess molar enthalpy: 0.173 ± 0.00406 kcal/mol
x1 = 0.935
  excess molar enthalpy: 0.109 ± 0.0043 kcal/mol
x1 = 0.951
  excess molar enthalpy: 0.0839 ± 0.00478 kcal/mol
x1 = 0.968
  excess molar enthalpy: 0.0573 ± 0.00478 kcal/mol

## CCOC(C)=O [ethyl acetate] + CCO
x1 = 0.03
  excess molar enthalpy: 0.0337 ± 0.00311 kcal/mol
x1 = 0.054
  excess molar enthalpy: 0.0591 ± 0.00359 kcal/mol
x1 = 0.078
  excess molar enthalpy: 0.0875 ± 0.00335 kcal/mol
x1 = 0.104
  excess molar enthalpy: 0.112 ± 0.00311 kcal/mol
x1 = 0.13
  excess molar enthalpy: 0.135 ± 0.00311 kcal/mol
x1 = 0.157
  excess molar enthalpy: 0.158 ± 0.00311 kcal/mol
x1 = 0.184
  excess molar enthalpy: 0.18 ± 0.00311 kcal/mol
x1 = 0.213
  excess molar enthalpy: 0.202 ± 0.00311 kcal/mol
x1 = 0.243
  excess molar enthalpy: 0.223 ± 0.00311 kcal/mol
x1 = 0.274
  excess molar enthalpy: 0.241 ± 0.00311 kcal/mol
x1 = 0.306
  excess molar enthalpy: 0.259 ± 0.00311 kcal/mol
x1 = 0.339
  excess molar enthalpy: 0.274 ± 0.00335 kcal/mol
x1 = 0.373
  excess molar enthalpy: 0.288 ± 0.00335 kcal/mol
x1 = 0.409
  excess molar enthalpy: 0.299 ± 0.00335 kcal/mol
x1 = 0.446
  excess molar enthalpy: 0.31 ± 0.00335 kcal/mol
x1 = 0.485
  excess molar enthalpy: 0.317 ± 0.00335 kcal/mol
x1 = 0.525
  excess molar enthalpy: 0.32 ± 0.00335 kcal/mol
x1 = 0.567
  excess molar enthalpy: 0.318 ± 0.00335 kcal/mol
x1 = 0.611
  excess molar enthalpy: 0.313 ± 0.00335 kcal/mol
x1 = 0.657
  excess molar enthalpy: 0.301 ± 0.00335 kcal/mol
x1 = 0.705
  excess molar enthalpy: 0.285 ± 0.00335 kcal/mol
x1 = 0.754
  excess molar enthalpy: 0.26 ± 0.00335 kcal/mol
x1 = 0.807
  excess molar enthalpy: 0.226 ± 0.00335 kcal/mol
x1 = 0.861
  excess molar enthalpy: 0.182 ± 0.00359 kcal/mol
x1 = 0.919
  excess molar enthalpy: 0.122 ± 0.00359 kcal/mol
x1 = 0.939
  excess molar enthalpy: 0.0955 ± 0.0043 kcal/mol
x1 = 0.96
  excess molar enthalpy: 0.0656 ± 0.0043 kcal/mol

## CCOC(C)=O [ethyl acetate] + CO
x1 = 0.057
  excess molar enthalpy: 0.0436 ± 0.00232 kcal/mol
x1 = 0.086
  excess molar enthalpy: 0.0651 ± 0.00213 kcal/mol
x1 = 0.113
  excess molar enthalpy: 0.0798 ± 0.00206 kcal/mol
x1 = 0.188
  excess molar enthalpy: 0.125 ± 0.00227 kcal/mol
x1 = 0.257
  excess molar enthalpy: 0.163 ± 0.00239 kcal/mol
x1 = 0.319
  excess molar enthalpy: 0.193 ± 0.00263 kcal/mol
x1 = 0.377
  excess molar enthalpy: 0.214 ± 0.00263 kcal/mol
x1 = 0.43
  excess molar enthalpy: 0.231 ± 0.00263 kcal/mol
x1 = 0.478
  excess molar enthalpy: 0.238 ± 0.00263 kcal/mol
x1 = 0.524
  excess molar enthalpy: 0.242 ± 0.00263 kcal/mol
x1 = 0.566
  excess molar enthalpy: 0.241 ± 0.00263 kcal/mol
x1 = 0.605
  excess molar enthalpy: 0.236 ± 0.00263 kcal/mol
x1 = 0.641
  excess molar enthalpy: 0.234 ± 0.00263 kcal/mol
x1 = 0.675
  excess molar enthalpy: 0.226 ± 0.00263 kcal/mol
x1 = 0.707
  excess molar enthalpy: 0.218 ± 0.00263 kcal/mol
x1 = 0.738
  excess molar enthalpy: 0.208 ± 0.00263 kcal/mol
x1 = 0.766
  excess molar enthalpy: 0.196 ± 0.00263 kcal/mol
x1 = 0.793
  excess molar enthalpy: 0.183 ± 0.00263 kcal/mol
x1 = 0.818
  excess molar enthalpy: 0.17 ± 0.00263 kcal/mol
x1 = 0.842
  excess molar enthalpy: 0.156 ± 0.00263 kcal/mol
x1 = 0.864
  excess molar enthalpy: 0.14 ± 0.00263 kcal/mol
x1 = 0.886
  excess molar enthalpy: 0.124 ± 0.00287 kcal/mol
x1 = 0.906
  excess molar enthalpy: 0.107 ± 0.00311 kcal/mol
x1 = 0.926
  excess molar enthalpy: 0.0879 ± 0.00335 kcal/mol
x1 = 0.944
  excess molar enthalpy: 0.068 ± 0.00359 kcal/mol
x1 = 0.962
  excess molar enthalpy: 0.0478 ± 0.00382 kcal/mol
x1 = 0.979
  excess molar enthalpy: 0.0253 ± 0.00406 kcal/mol
